Reference: patent US20050004044A1, “Use of orsaponin [3beta, 16beta, 17 alpha-trihydroxycholost-5-en-22-one 16-0-(2-0-4-methoxybenzoyl-beta-D-xylopyranosyl)-(1->3)-(2-0-acetyl-alpha-L-arabinopyranoside)] or OSW-1 and its derivatives for cancer therapeutics” (priority 2003, published 2005)

Assays:
HL-60 cells [1] = test: MTT cell growth inhibition, HL-60; assay type: cell-based; details: Homo sapiens, HL-60, 72 hours
Protocol: FIG. 2. Effect of Orsaponin (OSW-1) on cell growth in two human cancer cell lines including a leukemia and a lymphoma cell line. HL-60 (leukemia) and Raji cells (lymphoma) in exponentially growing phase were treated with the indicated concentrations of OSW-1 for 72 hours. Cell growth inhibition was measured by MTT assay.
Cells and Cell Lines. Various cancer cell lines were used including the human leukemia cell lines HL-60 and ML-1 cells; human lymphoma cell line Raji; human pancreatic cancer cells AsPC-1; and human ovarian cancer cells SKOV3; human colon cancer cells HCT116; as well as isolated CLL cells from patients; and lymphocytes from normal donors. Cells were grown and maintained as per protocols known in the art using appropriate cell culture media and supplements.
1. MTT Assays. For these assays either cancer cell lines were used. Alternatively, mononuclear cells from peripheral blood samples of CLL patients or normal donors were separated by Ficoll Hipaque fractionation and resuspended in DMEM complete medium. […] After the indicated number of days (usually 3 days or 72 hours) of exposure to OSW-1, cell survival was assessed by the addition of the MTT dye to the wells. […] Survival of cells under orsaponin treatment was evaluated as a percentage of control cell growth. […]

HL-60 cells [2] = test: Apoptosis and cell cycle (annexin V, DNA fragmentation, flow cytometry), HL-60; assay type: cell-based, human; details: HL-60, 0.5 nM
Protocol: FIGS. 1A-1B. Induction of apoptosis by Orsaponin (OSW-1) in human leukemia cells. HL-60 cells in exponentially growing phase were treated with 0.5 nM OSW-1 for the indicated times. Drug induced apoptosis was analyzed by the annexin V assay as shown in FIG. 1A and by the DNA fragmentation assay as shown in FIG. 1B. In FIG. 1A, the early and late stages of apoptotic cells appear in the low-right window and upper-right window, respectively.
FIG. 9. Mitochondrial respiration plays an important role in the cytotoxic action of Orsaponin (OSW-1). The parental HL-60 line and its mutant with mitochondrial respiration defect, clone C6F, were incubated with 0.5 nM OSW-1 for the indicated times. Apoptosis and change in cell cycle distribution were assayed by flow cytometry analysis.
2. Analysis of Apoptosis. Two methods were used to analyze apoptosis by assaying different events in the apoptotic pathways. Percentages of apoptotic cells induced by orsaponins of the invention were evaluated using flow cytometer. Different methods of staining cells for apoptosis were utilized to assess different aspects of apoptotic cascade.
(i) Annexin V Staining. Annexin V binds to cells that express phosphatidylserine on the outer layer of the cell membrane. […] Cells were analyzed on flow cytometer.
(ii) DNA Fragmentation Assay. […] The cell are then lysed in a solution containing 10 mM Tris-HCl, pH 7.5, 25 mM EDTA, 0.5% SDS, and […] protease K. After digestion and removal of the cellular protein from the cellular DNA, the isolated DNA is analyzed on a 1.8% agarose gel, and visualized by ethidium bromide staining. […]
Two cancer cell lines and their mutant mitochondrial respiration deficient clones were analyzed for apoptosis and changes in cell-cycle following exposure to OSW-1. […] Consistent with these observations, apoptosis was also detected by DNA fragmentation assays performed at 24 and 32 hours after HL-60 cells are treated with OSW-1; DNA fragmentation was not observed in C6F cells even at 32 hours of drug incubation (data not shown).

ML-1 cells = test: Mitochondrial transmembrane potential (rhodamine-123), ML-1; assay type: cell-based, human; details: ML-1, 1 nM, 16 and 24 h
Protocol: FIG. 11. Effect of orsaponin (OSW-1) on mitochondrial transmembrane potential ML-1 cells. The parental ML-1 line and its mutant with mitochondrial respiration defect, clone C19, were incubated with 1 nM OSW-1 for the indicated times. Change in mitochondrial transmembrane potential was measured by cytometry analysis, using rhodamine-123 as a potential-sensitive fluorescent probe.
3. Analysis of the Mitochondrial Transmembrane Potential. To evaluate the role of mitochondrial respiration in the cytotoxicity of OSW-1, changes in the potential of mitochondrial membrane were analyzed. Following the treatment of cells with OSW-1 for different time periods, cells were incubated with rhodamine-123 which is a potential-sensitive dye. Cytometric analysis was used to record changes in mitochondrial potential. […]
The effect of OSW-1 on mitochondrial transmembrane potential of ML-1 cells and the corresponding mitochondrial respiration defective mutant cell line C19 were analyzed by incubating with 1 nM OSW-1 for 4, 16 and 24 hours. Change in mitochondrial transmembrane potential was measured by cytometry analysis, using rhodamine-123 as a potential-sensitive fluorescent probe and are depicted in FIG. 11.

[3] = tested on: human ovarian cancer SKOV3 cells; test: Survival of nude mice inoculated i.p. with SKOV3; assay type: in vivo; details: i.p. 10 μg/kg/day, 5 days/week for two weeks
Protocol: FIG. 12. Nude mice were inoculated with human ovarian cancer SKOV3 cells (2×10^6/mouse, i.p., 10 mice/group). Drug treatment started on day 6 after tumor inoculation. OSW-1 was given by i.p. injection, 10 μg/kg/day, 5 days/week for two weeks.
Thus, nude mice were inoculated with human ovarian cancer SKOV3 cells at a concentration of 2×10^6/mouse, by the intraperitoneal route (i.p.) with 10 mice/group. Treatment with OSW-1 was started on day 6 after tumor inoculation. The control group was treated with saline. OSW-1 was given by i.p. injection, 10 μg/kg/day, 5 days/week for two weeks. […] When severe tumor burden and moribund signs appeared, euthanasia for the affected animal was performed according to IACUC standards.

## COc1ccc(C(=O)OC2C(OC3C(O)COC(O[C@H]4C[C@H]5[C@@H]6CC=C7C[C@@H](O)CC[C@]7(C)[C@H]6CC[C@]5(C)[C@@]4(O)[C@H](C)C(=O)CCC(C)C)C3OC(C)=O)OCC(O)C2O)cc1 (stereo partly drawn) [OSW-1, 3β, 16β, 17 α-trihydroxycholost-5-en-22-one 16-O-(2-O-4-methoxybenzoyl-β-D-xylopyranosyl)-(1->3)-(2-O-acetyl-α-L-arabinopyranoside)]
HL-60 cells [1]
  IC50: < 0.5 nM
HL-60 cells [2]; 16 hours
  change in cell cycle distribution: significant reduction of G1 phase cells and an increase of cells in the G2/M phase region
HL-60 cells [2]; 24 h, flow cytometry
  apoptosis (subG1): a substantial portion of the drug-treated HL-60 cells became apoptotic
HL-60 cells [2]; annexin V and DNA fragmentation
  time after incubation at which apoptosis occurred: 16 h
ML-1 cells
  change in mitochondrial transmembrane potential: substantial loss of mitochondrial transmembrane potential
[3]; 30 days
  Survival %: 100%
[3]; 60 days
  Survival %: 50%
